Source: PMC6001375, “CLERK is a novel receptor kinase required for sensing of root-active CLE peptides in Arabidopsis” (Development (Cambridge, England), 2018)

Tests used:
[1] = system: BAM3 ectodomain with NIK1/2/3 ectodomains; experiment: Analytical size-exclusion chromatography, BAM3 + NIK1/2/3 ectodomains; type: binding, Arabidopsis thaliana; conditions: Fig. S3D; 50 µM peptide; pH 5.0
Description: (§1) Isolation of recombinant proteins and analytical gel filtrations were carried out as described previously ([Hazak et al., 2017]) with small adjustments. The coding sequences for BAM1-ECD (amino acids 20-637), BAM3-ECD (30-651), PXY-ECD (30-647), NIK1-ECD (32-248), NIK2-ECD (33-248), NIK3-ECD (26-238), CLERK-ECD (28-236) and At5G63710-ECD (51-224) were amplified from Arabidopsis thaliana cDNA using PfuX7 polymerase. All ECD-coding sequences were then cloned into a modified pFAST-BAC1 vector (Geneva Biotech) by GIBSON cloning, resulting in the addition of the azurocidin signal peptide sequence to the 5′-end, and of a 2×-STREP-9×HIS tag to the 3′-end of the ECD sequences. These plasmids, after being confirmed by sequencing, were transformed into Escherichia coli DH10MultiBac (Geneva Biotech) followed by the extraction of the resulting bacmids. Transfection of the bacmids into Spodoptera frugiperda Sf9 cells with Profectin (AB Vector) was carried out to produce and amplify the respective virus. Recombinant secreted expression of the proteins was carried out by addition of virus to Trichoplusia ni Tnao38 cells to reach a viral multiplicity of 1 and incubation of the cells for 3 days. […] Concentrations of the pure proteins were assessed by measuring their absorbance at 280 nm (NanoDrop Lite; Thermo Scientific) and subsequent correction with their respective extinction coefficient. […]

[2] = system: root meristem protophloem; conditions: BAM3 necessary; ref Depuydt et al., 2013; Hazak et al., 2017; Kang and Hardtke, 2016; cited from earlier work
Description: The endogenous CLAVATA3/EMBRYO SURROUNDING REGION (CLE) peptides of plants are secreted as propeptides and processed to yield bioactive 12-14 amino acid long ligands ([Cock and McCormick, 2001]; [Ito et al., 2006]; [Kondo et al., 2006]). The Arabidopsis thaliana genome contains 32 CLE genes, which encode 27 distinct CLE peptides ([Goad et al., 2016]; [Ito et al., 2006]; [Strabala et al., 2006]). Exogenous application of chemically synthesized CLE peptides at nanomolar concentrations frequently suppresses Arabidopsis root growth in tissue culture ([Depuydt et al., 2013]; [Fiers et al., 2005]; [ ...

[3] = system: BAM3 ectodomain; conditions: ref Hazak et al., 2017; cited from earlier work
Description: The CLE resistance of clerk mutants could be explained through indirect effects, for example on the expression of bona fide CLE receptors, as proposed for crn ([Hazak et al., 2017]). To evaluate this scenario, we focused our efforts on the only identified CLE receptor in the root protophloem so far, the CLE45 receptor BAM3 ([Hazak et al., 2017]; [Kang and Hardtke, 2016]). Introduction of a BAM3::BAM3-CITRINE transgene into clerk mutants did however not reveal any altered BAM3 expression or localization (Fig. S1D). To also test whether CLERK could serve as a co-receptor for BAM3 instead, we obt ...

[4] = system: CLERK ectodomain (CLERK-ECD); experiment: Isothermal titration calorimetry, CLERK ectodomain; type: binding, Arabidopsis thaliana; conditions: ITC, 25°C, 20 mM citrate (pH 5.0), 150 mM NaCl; 400 µM peptide into 30 µM CLERK-ECD
Description: as §1

| Sequence | Elution of BAM3 ectodomain with NIK1/2/3 ectodomains [1] | Effect on protophloem sieve element differentiation [2] | Binding to BAM3 ectodomain [3] | Direct binding to CLERK ectodomain [4] |
| --- | --- | --- | --- | --- |
| RRVRRGSDPIHN [CLE45] | elute as monomers | suppression of protophloem sieve element differentiation | high-affinity | no direct binding |
| RKVPRGPDPIHN [CLE26] | – | – | – | no direct binding |
